Source: patent publication EP1731520A1, “Pyrrolo[2,3-d]pyrimidine derivatives which are antagonists of adenosine A1, A2A, and A3” (OSI Pharmaceuticals, Inc., priority 1999, dated 2001)

These compounds were tested against human A1 receptor subtype (Homo sapiens, UniProt P30542) (assay: not given). Conditions: Table 15, Adenosine A1 Receptor Selective Compounds.
human A1 receptor subtype, sequence (P30542 whole entry): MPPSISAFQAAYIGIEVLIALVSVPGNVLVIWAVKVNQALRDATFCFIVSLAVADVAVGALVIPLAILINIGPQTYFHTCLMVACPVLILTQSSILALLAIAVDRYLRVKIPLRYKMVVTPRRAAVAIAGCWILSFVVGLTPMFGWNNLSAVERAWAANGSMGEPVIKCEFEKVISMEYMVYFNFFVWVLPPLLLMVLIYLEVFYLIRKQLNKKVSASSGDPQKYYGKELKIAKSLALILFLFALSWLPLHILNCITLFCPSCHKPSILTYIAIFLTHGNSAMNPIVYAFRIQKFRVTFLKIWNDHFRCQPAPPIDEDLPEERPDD

Compound	Ki-A1 (selectivity versus other three subtypes)
CNC(=O)NC1CCCCC1Nc1nc(-c2ccccc2)nc2[nH]c(C)c(C)c12 (centres unmarked) [Compound 1500]	* (at least 10 times more selective than other three subtypes.)
CC(=O)NCCNc1nc(-c2ccccc2)nc2[nH]ccc12 [Compound 1501]	* (at least 10 times more selective than other three subtypes.)
CNC(=O)NCCNc1nc(-c2cccc(Cl)c2)nc2[nH]ccc12 [Compound 1502]	* (at least 10 times more selective than other three subtypes.)
O[C@H]1CC[C@H](Nc2nc(-c3ccccc3)nc3[nH]c(CN4CCOCC4)cc23)CC1 [Compound 1503]	* (at least 10 times more selective than other three subtypes.)
O[C@H]1CC[C@H](Nc2nc(-c3ccccc3)nc3[nH]c(CN4CCSCC4)cc23)CC1 [Compound 1504]	* (at least 10 times more selective than other three subtypes.)

Same assay, conditions: read-out: Al Binding Ki; Table 6, Effect of N6-Substituent

Ki	Compound
> 10 nM	Cc1[nH]c2nc(-c3ccccc3)nc(NC3CCC(NS(C)(=O)=O)CC3)c2c1C (centres unmarked) [Compound 604]
786 nM	Cc1[nH]c2nc(-c3ccccc3)nc(NC3CCC(OC(=O)c4ccccc4)CC3)c2c1C (centres unmarked) [Compound 611]
34.3 nM	Cc1[nH]c2nc(-c3ccccc3)nc(N[C@@H]3C[C@@H](O)[C@@H](O)C3)c2c1C [Compound 616]

Same assay, conditions: read-out: Al Binding Ki; Table 7, Effect of C2-Substituent

Ki	Compound
2140 nM	Cc1[nH]c2nc(C(C)C)nc(N[C@H]3CC[C@H](O)CC3)c2c1C [Compound 708]
48.7 nM	Cc1[nH]c2nc(-c3ccccc3F)nc(N[C@H]3CC[C@H](O)CC3)c2c1C [Compound 709]

Same assay, conditions: saturation and competition radio ligand binding

A1 receptor binding affinity compared with reference compounds 1318 or 1319	Compound
equaled or surpassed	NC(=O)[C@@H]1CCCN1c1nc(-c2ccccc2)nc2[nH]ccc12 [Compound 1506]
equaled or surpassed	COCc1cc2c(N3CCC[C@H]3C(N)=O)nc(-c3ccccc3)nc2[nH]1 [Compound 1507]
equaled or surpassed	NC(=O)C1CC(O)CN1c1nc(-c2ccccc2)nc2[nH]ccc12 (centres unmarked) [Compound 1508, 4-Hydroxy-1-(2-phenyl-7H-pyrrolo[2,3-d]pyrimidin-4-yl]-pyrrolidine-2-carboxylic acid amide]
equaled or surpassed	NC(=O)[C@@H]1CCCN1c1nc(-c2ccccc2)nc2[nH]c(CCC(=O)O)cc12 [Compound 1509, 3-[4-((S)-2-Carbamoyl-pyrrolodin-1-yl)-2-phenyl-7H-pyrrolo[2,3-d]pyrimidin-6-yl]-propionic acid]
equaled or surpassed	NC(=O)COCc1cc2c(N3CCC[C@H]3C(N)=O)nc(-c3ccccc3)nc2[nH]1 [Compound 1510]
equaled or surpassed	NC(=O)C1CCCN1c1nc(-c2ccccc2)nc2[nH]c(C(=O)O)cc12 (centres unmarked) [Compound 1511, [4-(2-Carbamoylpyrrolidin-1-yl)-2-phenyl-7H-pyrrolo[2,3-d]pyrimidine-6-carboxylic acid]]
equaled or surpassed	Cc1cc2c(N3CCC[C@H]3C(N)=O)nc(-c3ccccc3)nc2[nH]1 [Compound 1512, 1-(6-methyl-2-phenyl-7H-pyrrolo[2,3-d]pyrimidine-4-yl)-(S)-pyrrolidine-2-carboxylic acid amide]
equaled or surpassed	NC(=O)C1CCCN1c1nc(-c2ccccc2)nc2[nH]c(COCCO)cc12 (centres unmarked) [Compound 1513, 1-[6-(2-Hydroxy-ethoxymethyl) -2-phenyl-7H-pyrrolo[2,3-d]pyrimidin-4-yl]-pyrrolidine-2-carb oxylic acid amide]
equaled or surpassed	OC1CCC(Nc2nc(-c3ccccc3)nc3[nH]c(Cn4ccnc4)cc23)CC1 (centres unmarked) [Compound 1514, 4-(6-Imidazol-1-ylmethyl-2-phenyl-7H-pyrrolo[2,3-d]pyrimidin-4-ylamino)-cyclohexanol]
equaled or surpassed	OCCOCc1cc2c(N[C@H]3CC[C@H](O)CC3)nc(-c3ccccc3)nc2[nH]1 [Compound 1516]
equaled or surpassed	COC(=O)c1cc2c(NC3CCC(O)CC3)nc(-c3ccccc3)nc2[nH]1 (centres unmarked) [Compound 1517, 4-(4-Hydroxy-cyclohexylamino) -2-phenyl-7H-pyrrolo[2,3-d]pyrimidine-6-carboxylic acid methyl ester]
equaled or surpassed	COC(=O)COCc1cc2c(N3CCCC3C(N)=O)nc(-c3ccccc3)nc2[nH]1 (centres unmarked) [Compound 1518, [4-(2-Carbamoyl-pyrrolidin-1-yl) -2-phenyl-7H-pyrrolo[2,3-d]pyrimidin-6-ylmethoxy]-acetic acid methyl ester]
equaled or surpassed	NC(=O)C1CCCN1c1nc(-c2ccccc2)nc2[nH]c(COCC(=O)O)cc12 (centres unmarked) [Compound 1519, [4-(2-Carbamoyl-pyrrolidin-1-yl) -2-phenyl-7H-pyrrolo[2,3-d]pyrimidin-6-ylmethoxy]-acetic acid]
equaled or surpassed	NC(=O)c1cc2c(NC3CCC(O)CC3)nc(-c3ccccc3)nc2[nH]1 (centres unmarked) [Compound 1520, 4-(4-Hydroxy-cyclohexylamino)-2-phenyl-7H-pyrrolo[2,3-d]pyrimidine-6-carboxylic acid amide]

Compound	A1 receptor binding affinity compared with reference compounds 1318 or 1319
1-[6-(4-Hydroxy-4-phenyl-piperidin-1-yl-methyl)-2-phenyl-7H-pyrrolo[2,3-d]pyrimidin-4-yl]-pyrrolidine-2-carboxylic acid amide [Compound 1505]	equaled or surpassed

Each compound was assayed against T1, human A3 receptor subtype (Homo sapiens, UniProt P0DMS8) (assay: Adenosine 3 receptor competition radioligand binding, [125I] AB-MECA, HEK293 membranes). Conditions: Table 17, Adenosine A3 Receptor Selective Compounds.
T1 sequence (P0DMS8 1-318): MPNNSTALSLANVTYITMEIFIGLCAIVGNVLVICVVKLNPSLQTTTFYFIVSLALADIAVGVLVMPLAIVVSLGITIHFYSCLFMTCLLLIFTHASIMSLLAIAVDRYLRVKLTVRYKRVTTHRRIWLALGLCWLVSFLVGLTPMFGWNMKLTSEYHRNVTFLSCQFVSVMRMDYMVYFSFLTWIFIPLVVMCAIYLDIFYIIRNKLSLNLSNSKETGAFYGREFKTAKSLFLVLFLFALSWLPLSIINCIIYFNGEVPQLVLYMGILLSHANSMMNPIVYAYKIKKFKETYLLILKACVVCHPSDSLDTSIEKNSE

Compound	Ki-A3 (selectivity versus other three subtypes)
CC(=O)NC(CNc1nc(-c2ccccc2)nc2[nH]c(C)c(C)c12)C(C)C (centres unmarked) [Compound 1700]	* (at least 10 times more selective than other three subtypes.)
CCN(CC)C(=O)NCCNc1nc(-c2ccccc2)nc2[nH]c(C)c(C)c12 [Compound 1701]	* (at least 10 times more selective than other three subtypes.)
CC(=S)NCCNc1nc(-c2ccccc2)nc2[nH]c(C)c(C)c12 [Compound 1702]	* (at least 10 times more selective than other three subtypes.)
OC1CCN(c2nc(-c3ccccc3)nc3[nH]c(-c4ccccc4)cc23)C1 (centres unmarked) [Compound 1703]	* (at least 10 times more selective than other three subtypes.)
CCNC(=O)NCCCNc1nc(-c2ccccc2)nc2[nH]c(C)c(C)c12 [Compound 1704]	* (at least 10 times more selective than other three subtypes.)
Cc1[nH]c2nc(-c3ccccc3)nc(NC3CCC(OC(=O)CN)C3)c2c1C (centres unmarked) [Compound 1705]	* (at least 10 times more selective than other three subtypes.)
OC1CCC(Nc2nc(-c3ccccc3)nc3[nH]ccc23)C1 (centres unmarked) [Compound 1706]	* (at least 10 times more selective than other three subtypes.)
O=C(NCCNc1nc(-c2ccccc2)nc2[nH]ccc12)c1ccc[nH]1 [Compound 1707]	* (at least 10 times more selective than other three subtypes.)
O=C1NCCN1CCNc1nc(-c2ccccc2)nc2[nH]c(-c3ccccc3)cc12 [Compound 1708]	* (at least 10 times more selective than other three subtypes.)
CC(C)C(Nc1nc(-c2ccccc2)nc2[nH]c(-c3ccccc3)cc12)C(N)=O (centres unmarked) [Compound 1709]	* (at least 10 times more selective than other three subtypes.)
NC(=O)C(Cc1ccccc1)Nc1nc(-c2ccccc2)nc2[nH]c(-c3ccccc3)cc12 (centres unmarked) [Compound 1710]	* (at least 10 times more selective than other three subtypes.)
OCC1CN(c2nc(-c3ccccc3)nc3[nH]ccc23)C1 [Compound 1711]	* (at least 10 times more selective than other three subtypes.)
Clc1cccc(OCc2cc3c(NCCc4ccc[nH]4)nc(-c4ccccc4)nc3[nH]2)c1 [Compound 1712]	* (at least 10 times more selective than other three subtypes.)
CC(=O)NCCNc1nc(-c2ccccc2)nc2[nH]c(CN3CCC[C@H]3CNc3ccccc3)cc12 [Compound 1713]	* (at least 10 times more selective than other three subtypes.)
OC[C@@H](Nc1nc(-c2ccccc2)nc2[nH]c(COc3cccc(Cl)c3)cc12)c1ccccc1 [Compound 1714]	* (at least 10 times more selective than other three subtypes.)
CNC(=O)N1CCCCC1CNc1nc(-c2ccccc2)nc2[nH]c(COc3cccc(Cl)c3)cc12 (centres unmarked) [Compound 1715]	* (at least 10 times more selective than other three subtypes.)
COC(=O)CC1CCN(c2nc(-c3ccccc3)nc3[nH]c(COc4cccc(Cl)c4)cc23)C1 (centres unmarked) [Compound 1716]	* (at least 10 times more selective than other three subtypes.)
NC(=O)CC1CCN(c2nc(-c3ccccc3)nc3[nH]c(COc4cccc(Cl)c4)cc23)C1 (centres unmarked) [Compound 1717]	* (at least 10 times more selective than other three subtypes.)
OCC1CCCN(c2nc(-c3ccccc3)nc3[nH]c(COc4cccc(Cl)c4)cc23)C1 (centres unmarked) [Compound 1718]	* (at least 10 times more selective than other three subtypes.)
